From ChEMBL document CHEMBL1201862, “PubChem BioAssay data set” (2004)
Calls of active or inactive are those of the source.

Key:
[1] = molecular target: T1, Heat shock factor protein 1 (Mus musculus, UniProt P38532); test: HSF1 potentiators in luciferase reporter cells, confirmation, cell-based, NIH3T3, luminescence, dose retest (AID 435004); assay type: functional;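 further: stress induced by proteasome inhibitor MG132 added 30 min after compound; luciferase reporter driven by HSF1 response element in NIH3T3 cells; actives raise luminescence as potentiators of the MG132 stress response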
T1 sequence (P38532 whole entry): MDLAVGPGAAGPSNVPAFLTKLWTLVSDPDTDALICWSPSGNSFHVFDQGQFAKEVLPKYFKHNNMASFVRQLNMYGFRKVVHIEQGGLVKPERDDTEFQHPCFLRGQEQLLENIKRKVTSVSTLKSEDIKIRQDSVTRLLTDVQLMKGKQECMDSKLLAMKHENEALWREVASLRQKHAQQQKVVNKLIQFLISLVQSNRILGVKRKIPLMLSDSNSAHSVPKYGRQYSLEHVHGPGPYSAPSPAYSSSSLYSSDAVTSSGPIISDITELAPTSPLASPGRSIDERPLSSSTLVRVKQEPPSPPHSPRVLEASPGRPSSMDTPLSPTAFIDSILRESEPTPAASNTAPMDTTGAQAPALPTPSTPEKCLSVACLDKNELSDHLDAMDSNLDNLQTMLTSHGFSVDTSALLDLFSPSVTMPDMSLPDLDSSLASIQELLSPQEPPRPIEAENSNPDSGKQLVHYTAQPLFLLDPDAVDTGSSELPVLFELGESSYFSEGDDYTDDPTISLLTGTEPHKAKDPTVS

Large T antigen = Large T antigen (Simian virus 40, UniProt P03070); assay type: functional, Betapolyomavirus macacae;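 further: Confirmatory-stage PubChem screen for compounds that inhibit SV40 T antigen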
[2] = growth suppression of PTEN-null colon cells, dose response, cell-based, HCT116 PTEN knockout (AID 1047); assay type: functional;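 further: HCT116 colon tumor cells with PTEN knocked out; cells exposed to compound for 60 hours before readout; potency for loss of cell viability measured by luminescence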
[3] = growth suppression of beta-catenin-knockout colon cells, dose response, cell-based, HCT116, human colon tumor (AID 1045); assay type: functional;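 further: HCT116 colon tumor cells with beta catenin knocked out; cells exposed to compound for 60 hours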
[4] = microbe, parasite or virus in culture; assay type: functional; conditions: Mycobacterium tuberculosis
cells = assay type: functional
[5] = molecular target: T2, Rac GTPase-activating protein 1 (Homo sapiens, UniProt Q9H0H5); test: MgcRacGAP GTPase-activating activity inhibitors, confirmation, biochemical, ADP Hunter fluorescence, primary and confirmatory (AID 624330); assay type: functional
T2 sequence (Q9H0H5 whole entry): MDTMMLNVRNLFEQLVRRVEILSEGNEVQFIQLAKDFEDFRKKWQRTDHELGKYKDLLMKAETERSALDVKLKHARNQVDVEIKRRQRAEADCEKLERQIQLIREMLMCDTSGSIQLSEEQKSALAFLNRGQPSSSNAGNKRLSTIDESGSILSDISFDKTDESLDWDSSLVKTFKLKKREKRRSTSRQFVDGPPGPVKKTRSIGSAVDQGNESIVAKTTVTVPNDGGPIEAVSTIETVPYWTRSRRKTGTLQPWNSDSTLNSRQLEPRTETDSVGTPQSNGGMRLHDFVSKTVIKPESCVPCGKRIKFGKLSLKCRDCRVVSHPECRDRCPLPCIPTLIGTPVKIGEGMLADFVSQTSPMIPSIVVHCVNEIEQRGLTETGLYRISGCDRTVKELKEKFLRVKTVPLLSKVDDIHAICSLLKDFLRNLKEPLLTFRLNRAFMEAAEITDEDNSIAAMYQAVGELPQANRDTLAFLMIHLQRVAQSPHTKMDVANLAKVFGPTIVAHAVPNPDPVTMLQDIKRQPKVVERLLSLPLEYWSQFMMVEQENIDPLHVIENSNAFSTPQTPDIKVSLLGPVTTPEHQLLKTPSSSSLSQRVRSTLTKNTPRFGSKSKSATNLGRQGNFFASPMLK

Cytochrome P450 2D6 = Cytochrome P450 2D6 (Homo sapiens, UniProt P10635);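 further: CYP2D6 member of a cytochrome P450 panel assay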
[6] = system: Streptococcus sp. 'group A'; test: growth inhibition of control SK(-) GAS strain, dose response, counter-screen for streptokinase expression inhibitor project, luminescence, kanamycin, BacTiterGlo, confirmation (AID 1900); assay type: functional, organism-based
[7] = inhibitors of intracellular T. cruzi replication, confirmation, NIH3T3 host cells, beta-gal luminescence (AID 2044); assay type: functional, cell-based;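 further: intracellular parasites grown in NIH/3T3 mouse fibroblasts as host cells; luminescent beta-galactosidase reporter signal from transgenic T. cruzi replicating inside host cells; inhibitors lower the luminescence signal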
[8] = cytotoxicity toward NIH3T3 fibroblasts, dose response, counter-screen, cell-based, ATP luminescence, mouse fibroblasts (AID 2010); assay type: functional;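 further: cells exposed to compound for about 90 hours before reading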
Streptococcus = test: Group A Streptococcus viability loss, dose response, counter-screen for streptokinase expression inhibitor project, luminescence, BacTiterGlo (AID 1915); assay type: functional, organism-based;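 further: potency for reduction of bacterial viability or growth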

Chain of Large T antigen (P03070 whole entry): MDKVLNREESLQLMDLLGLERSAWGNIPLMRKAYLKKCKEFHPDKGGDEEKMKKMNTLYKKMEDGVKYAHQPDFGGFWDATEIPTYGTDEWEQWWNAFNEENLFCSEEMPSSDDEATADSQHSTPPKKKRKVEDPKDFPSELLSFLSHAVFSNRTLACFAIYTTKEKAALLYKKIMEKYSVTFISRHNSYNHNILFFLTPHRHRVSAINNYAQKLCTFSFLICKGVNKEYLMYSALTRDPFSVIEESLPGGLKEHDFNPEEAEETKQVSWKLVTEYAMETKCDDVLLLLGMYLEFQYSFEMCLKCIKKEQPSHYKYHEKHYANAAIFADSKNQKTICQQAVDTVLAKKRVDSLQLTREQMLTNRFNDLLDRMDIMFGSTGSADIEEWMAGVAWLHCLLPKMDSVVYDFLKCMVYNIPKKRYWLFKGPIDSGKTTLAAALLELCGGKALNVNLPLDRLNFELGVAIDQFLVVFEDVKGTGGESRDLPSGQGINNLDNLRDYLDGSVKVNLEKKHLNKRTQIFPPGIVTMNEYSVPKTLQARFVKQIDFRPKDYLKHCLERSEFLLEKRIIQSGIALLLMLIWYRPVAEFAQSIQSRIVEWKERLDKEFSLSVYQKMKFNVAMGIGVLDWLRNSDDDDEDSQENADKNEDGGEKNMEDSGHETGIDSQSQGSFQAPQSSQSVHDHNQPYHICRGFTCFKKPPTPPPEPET
Chain of Cytochrome P450 2D6 (P10635 whole entry): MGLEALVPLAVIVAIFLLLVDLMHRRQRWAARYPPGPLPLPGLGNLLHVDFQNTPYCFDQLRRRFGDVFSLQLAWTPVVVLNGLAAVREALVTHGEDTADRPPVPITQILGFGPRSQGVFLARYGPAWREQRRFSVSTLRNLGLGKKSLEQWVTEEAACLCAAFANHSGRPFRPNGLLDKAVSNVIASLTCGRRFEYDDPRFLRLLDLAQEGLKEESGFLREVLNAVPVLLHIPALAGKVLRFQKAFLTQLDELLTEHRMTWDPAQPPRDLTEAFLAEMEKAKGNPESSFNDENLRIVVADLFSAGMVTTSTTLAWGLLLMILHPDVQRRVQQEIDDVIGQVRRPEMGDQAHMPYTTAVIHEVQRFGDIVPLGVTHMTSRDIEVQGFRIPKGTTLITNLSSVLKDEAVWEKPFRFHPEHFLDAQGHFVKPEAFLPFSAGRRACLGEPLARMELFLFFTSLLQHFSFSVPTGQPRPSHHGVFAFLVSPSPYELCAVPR

With CCOC(=O)N1CCC(NC(=O)c2cccs2)CC1 as the compound, how does the EC50 [1] read?
Its EC50 is > 260 µM (inactive).

Which EC50 [1] does the source give for Cc1cc(C)cc(OCC(O)CN2C(=O)NC(C)(C)C2=O)c1 (stereo not given) here?
Its EC50 is > 260 µM (inactive).

For Fc1ccc(CN2CCN(c3ncnc4scc(-c5ccccc5)c34)CC2)cc1, which EC50 [1] is on record?
The EC50 was > 260 µM (inactive).

With Cc1cccc(N(CC(=O)Nc2ccccc2-c2ccccc2)S(=O)(=O)c2ccccc2)c1C as the compound, how does the EC50 [1] read?
The EC50 was > 260 µM (inactive).

With CN(C)c1ccc(NC(=O)CN2CCC(C(=O)c3ccc(F)cc3)CC2)cc1 as the compound, how does the IC50 (Large T antigen) read?
Its IC50 is 10.4 µM (active).

For COc1ccc(NC2CCCN(C(=O)c3ccc(OC)o3)C2)cc1 (stereo not given), which IC50 (Large T antigen) is on record?
Its IC50 is 16.7 µM (active).

With Cc1ccc2c[nH]nc2c1N as the compound, how does the IC50 (Large T antigen) read?
The IC50 was 15.4 µM (active).

Which EC50 [2] does the source give for Cc1ccc(P(=O)(CSC(=N)N)c2ccc(C)cc2)cc1 here?
Its EC50 is 30.7 µM (active).

What about the EC50 [3] of the same compound?
The EC50 was 25.4 µM (active).

Which IC50 (Large T antigen) does the source give for Cc1ccc(S(=O)(=O)N2CCOCC2)cc1NC(=O)CN1CCN(c2ccc(O)cc2)CC1 here?
Its IC50 is 5.03 µM (active).

With COc1ccccc1C(=O)NNC(=O)C(=O)NCc1ccccc1 as the compound, how does the CC50 [4] read?
The CC50 was > 40 µM (active).

For Cc1nc(CN2CCN(Cc3nc(C(c4ccccc4)c4ccccc4)no3)CC2)cs1, which EC50 [1] is on record?
The EC50 was > 260 µM (inactive).

With COc1cc2c3c(c1OC)C1(C=CC(=O)C=C1)CC3N(C(=O)c1ccccc1)CC2 (stereo not given) as the compound, how does the EC50 [1] read?
The EC50 was > 260 µM (inactive).

Which results are given for CS(=O)(=O)Cc1nc2ccccc2oc1=O?
IC50 (cells): 2.93 µM (active); IC50 [5]: 73.6 µM (active)

For O=C1CC(SC(=Nc2ccccc2)Nc2ccccc2)C(=O)N1c1cccc(Cl)c1 (stereo not given), which EC50 [2] is on record?
The EC50 was 24.5 µM (active).

And the EC50 [3]?
The EC50 was 33.2 µM (active).

And the AC50 (Cytochrome P450 2D6)?
Its AC50 is 10 µM (inconclusive).

With CCCCn1c(=N)n(CC(O)COc2ccc(C)cc2)c2ccccc21 (stereo not given) as the compound, how does the EC50 [2] read?
The EC50 was 6.43 µM (active).

What about the EC50 [3] of the same compound?
Its EC50 is 6.36 µM (active).

Which IC50 (Large T antigen) does the source give for CN(C(=O)c1ccccc1C(=O)OCC(=O)NCc1cccs1)C1CCCCC1 here?
Its IC50 is > 100 µM (active).

Which EC50 [2] does the source give for CN1C(=O)C(O)(CC(=O)c2ccc(F)cc2)c2cc(Br)ccc21 (stereo not given) here?
The EC50 was 19.1 µM (active).

What about the EC50 [3] of the same compound?
The EC50 was 15.7 µM (active).

Which IC50 (Large T antigen) does the source give for CCCCn1nnnc1SCC(=O)Nc1ccc(N(C)C)cc1 here?
The IC50 was 11.2 µM (active).

Which EC50 [1] does the source give for CCOC(=O)CN1C=C(c2ccc3ccccc3n2)C(C[N+](=O)[O-])c2ccccc21 (stereo not given) here?
Its EC50 is 70.3 µM (active).

For CCOc1ccc(C(=O)N2CCN(S(=O)(=O)c3cccs3)CC2)c(OCC)c1, which EC50 [1] is on record?
Its EC50 is > 260 µM (inactive).

For O=C(N/N=C/c1ccc(Br)s1)c1cccs1, which CC50 [4] is on record?
Its CC50 is 33.3 µM (active).

What does the source list for O=C(N/N=C/c1ccc([N+](=O)[O-])o1)c1cc(-c2cccc(Br)c2)nc2ccccc12?
EC50 [6]: 0.398 µM (active); EC50 [7]: 0.128 µM (active); EC50 [2]: 7.92 µM (active); EC50 [8]: > 60 µM (not active); EC50 [3]: 7.86 µM (active); EC50 (Streptococcus): 0.796 µM (active)

For COc1cccc(/C=N/NC(=S)NC2CC3CC2C2C=CCC32)c1O (stereo not given), which EC50 [1] is on record?
Its EC50 is > 260 µM (inactive).

Which CC50 [4] does the source give for Cc1cc(N/N=C2/CCCc3ccccc32)nc2ccccc12 here?
Its CC50 is > 40 µM (active).

Which IC50 (Large T antigen) does the source give for N/C(S)=N/c1c(Cl)cccc1Cl here?
The IC50 was 77.4 µM (active).

Which results are given for CCOc1cc(/C=N/n2cnnc2)ccc1O?
IC50 (Large T antigen): 13.6 µM (active); IC50 [5]: 34.3 µM (active)

With O=C(N/N=C/c1ccc(F)c(F)c1)c1cc2c(s1)-c1ccccc1CC2 as the compound, how does the EC50 [2] read?
Its EC50 is 22.4 µM (active).

What about the EC50 [3] of the same compound?
Its EC50 is 21.2 µM (active).
